Q: With `COCC(=O)NC(C)C(=O)O` (configuration not stated) as the compound, how does the melting point read?
A: 108 to 110 °C

Q: Which melting point does the source give for `CC(Cl)C(=O)NCC1CCCCC1` (configuration not stated) here?
A: 83 to 85 °C

Q: For `Nc1nc(-c2ccc(Cl)cc2)no1`, which melting point is on record?
A: 248 to 250 °C

Q: With `CON(C)S(=O)(=O)c1ccc(N)cc1` as the compound, how does the melting point read?
A: 148 to 150 °C

Q: With `CC(C)(C)c1ccc(-c2nnc(S)n2N)cc1` as the compound, how does the melting point read?
A: 105 to 106 °C

Q: For `CC(C)(C)OC(=O)N1CCN(C(=O)C2CCCNC2)CC1` (configuration not stated), which melting point is on record?
A: 119 to 121 °C

Q: With `O=C(CCl)N1N=C(c2ccco2)CC1c1cccs1` (configuration not stated) as the compound, how does the melting point read?
A: 153 to 155 °C

Q: With `CC(=O)c1ccc(SCC(=O)O)cc1F` as the compound, how does the melting point read?
A: 138 to 140 °C

Q: With `COc1ccc2ccc(O)cc2c1` as the compound, how does the melting point read?
A: 116 to 119 °C

Q: With `O=C(O)CCN1C(=O)CSc2ccccc21` as the compound, how does the melting point read?
A: 144 to 146 °C

Q: With `O=C(O)c1nc(-c2cccs2)n(-c2ccc(F)cc2)n1` as the compound, how does the melting point read?
A: 196 to 198 °C

Q: Which melting point does the source give for `CNc1ccc(Br)cn1` here?
A: 69 to 71 °C

Q: With `O=C(O)c1cc(-c2ccccn2)ccc1Cl` as the compound, how does the melting point read?
A: 215 to 217 °C

Q: Which melting point does the source give for `O=S(=O)(c1ccc(F)cc1)N1CCCNCC1` here?
A: 180 to 182 °C

Q: Which melting point does the source give for `O=C(Nc1ccn[nH]1)OCc1ccccc1` here?
A: 194 to 196 °C

Q: With `Nc1cccc(NC(=O)c2ccoc2)c1` as the compound, how does the melting point read?
A: 120 to 122 °C

Q: With `Cn1cc(N2CCCC(Br)C2=O)cn1` (configuration not stated) as the compound, how does the melting point read?
A: 121 to 123 °C

Q: For `Nc1cc(-c2ccc(F)cc2F)on1`, which melting point is on record?
A: 122 to 124 °C

Q: For `Cc1nc2ccccc2c(=O)n1-c1ccc(Br)cc1`, which melting point is on record?
A: 176 to 178 °C

Q: Which melting point does the source give for `NS(=O)(=O)c1cc(Br)ccc1Cl` here?
A: 179 to 181 °C

Q: Which melting point does the source give for `CS(=O)(=O)c1ccc(S(N)(=O)=O)cc1` here?
A: 246 to 248 °C

Q: Which melting point does the source give for `NS(=O)(=O)c1cc(Cl)c(F)c(C(=O)O)c1` here?
A: 228 to 230 °C

Q: With `Nc1ccn(CC(=O)N2CCOCC2)n1` as the compound, how does the melting point read?
A: 168 to 170 °C

Q: For `O=C1Cc2cc(Br)c(Cl)cc2N1`, which melting point is on record?
A: 219 to 221 °C

Q: Which melting point does the source give for `CC(=O)c1cccc(N2CCCC2=O)c1` here?
A: 90 to 95 °C

Q: Which melting point does the source give for `O=C(CCl)Nc1cc(F)ccc1F` here?
A: 118 to 120 °C

Q: With `CC(C)(CO)C(CN)c1ccccc1` (configuration not stated) as the compound, how does the melting point read?
A: 116 to 118 °C

Q: For `O=C(O)c1cc(Br)cc(S(=O)(=O)Cl)c1`, which melting point is on record?
A: 154 to 156 °C

Q: Which melting point does the source give for `NC(=S)Cc1nnc2n1CCCCC2` here?
A: 227 to 229 °C

Q: For `CNS(=O)(=O)c1ccccc1N`, which melting point is on record?
A: 53 to 55 °C

Q: Which melting point does the source give for `Cc1cc(C(=O)O)c(C)n1-c1cccc(Br)c1` here?
A: 158 to 160 °C

Q: With `Cn1cnn(CC(=O)O)c1=O` as the compound, how does the melting point read?
A: 172 to 174 °C

Q: Which melting point does the source give for `Nc1ccc(CC(=O)N2CCN(c3ccccc3)CC2)cc1` here?
A: 201 to 203 °C

Q: For `O=C(CC(F)(F)F)c1ccccc1`, which melting point is on record?
A: 37 to 39 °C

Q: Which melting point does the source give for `O=C(O)CCOc1ccc(Cl)cc1Cl` here?
A: 93 to 95 °C

Q: With `CC(C)c1ccc(-n2nnnc2S)cc1` as the compound, how does the melting point read?
A: 100 to 102 °C

Q: With `Cn1ccnc1CN1CCC(C(=O)O)CC1` as the compound, how does the melting point read?
A: 173 to 175 °C

Q: Which melting point does the source give for `CCc1ccc(C(N)=NO)cc1` here?
A: 160 to 162 °C

Q: With `COC(=O)c1c(S)nc(=O)[nH]c1C` as the compound, how does the melting point read?
A: 225 to 227 °C

Q: Which melting point does the source give for `NNC(=O)c1cccc2cccnc12` here?
A: 88 to 90 °C

Q: For `COc1ccccc1C(NC(=O)OC(C)(C)C)C(=O)O` (configuration not stated), which melting point is on record?
A: 146 to 148 °C

Q: For `Cn1nc(Br)c2c(NN)ncnc21`, which melting point is on record?
A: 198 to 200 °C

Q: Which melting point does the source give for `O=C(O)c1cc(S(=O)(=O)N2CCOCC2)ccc1O` here?
A: 234 to 236 °C

Q: With `O=C(O)C1CCC2CCCCC2C1` (configuration not stated) as the compound, how does the melting point read?
A: 57 to 59 °C

Q: Which melting point does the source give for `O=Cc1ccc(-n2ccnc2)nc1` here?
A: 139 to 141 °C

Q: With `CCOC(=O)c1cnccn1` as the compound, how does the melting point read?
A: 48 to 50 °C

Q: With `Nc1ccc(CCn2cc(Br)cn2)cc1` as the compound, how does the melting point read?
A: 65 to 67 °C

Q: With `CCOc1ccc(-c2cc(N)on2)cc1` as the compound, how does the melting point read?
A: 126 to 128 °C

Q: For `Cc1nnc(S)n1Cc1ccccc1`, which melting point is on record?
A: 164 to 166 °C

Q: For `Cc1[nH]c(=O)[nH]c(=O)c1C#N`, which melting point is on record?
A: 351 to 353 °C

Q: For `Cc1cc2c(=O)[nH]cnc2s1`, which melting point is on record?
A: 258 to 260 °C

Q: For `Nc1cc(C(=O)O)ccc1N1CCSCC1`, which melting point is on record?
A: 252 to 254 °C

Q: For `CC(C)n1ncc(C(N)=O)c1N`, which melting point is on record?
A: 194 to 196 °C

Q: With `O=C(Nc1ccc(-c2ccccc2)cc1)OCC(F)(F)F` as the compound, how does the melting point read?
A: 168 to 170 °C

Q: For `O=C1NC(=O)C(c2ccccc2)(C(F)(F)F)N1` (configuration not stated), which melting point is on record?
A: 240 to 242 °C

Q: Which melting point does the source give for `Cn1nnnc1S(C)(=O)=O` here?
A: 64 to 66 °C

Q: With `CC(C)(C)Cc1nc2cc(N)ccc2o1` as the compound, how does the melting point read?
A: 83 to 85 °C

Q: Which melting point does the source give for `N#CCc1ccccc1C(=O)O` here?
A: 106 to 108 °C

Q: With `Cc1ccoc1-c1nnc(CCl)o1` as the compound, how does the melting point read?
A: 49 to 51 °C

Q: Which melting point does the source give for `CC1(NC(=O)CCl)CCS(=O)(=O)C1` (configuration not stated) here?
A: 96 to 98 °C

Q: Which melting point does the source give for `CN(C(=O)CCl)C(C)(C)C#N` here?
A: 55 to 57 °C

Q: For `NS(=O)(=O)c1ccc2[nH]c(=O)c(=O)[nH]c2c1`, which melting point is on record?
A: 372 to 374 °C

Q: For `Cn1ncc2c(N3CCNCC3)ncnc21`, which melting point is on record?
A: 64 to 66 °C

Q: With `O=C(O)c1cccn2cc(CN3CCCC3)nc12` as the compound, how does the melting point read?
A: 264 to 266 °C

Q: Which melting point does the source give for `COc1ccc(S(=O)(=O)Cl)cc1C` here?
A: 51 to 53 °C

Q: Which melting point does the source give for `Brc1ccc2ncnc(N3CCNCC3)c2c1` here?
A: 99 to 101 °C

Q: With `CCCCc1ccc(NS(=O)(=O)c2ccc(N)cc2OC)cc1` as the compound, how does the melting point read?
A: 170 to 172 °C

Q: Which melting point does the source give for `Cc1cc(C(=O)C(C)Cl)c(C)n1-c1ccc(OC(F)F)cc1` (configuration not stated) here?
A: 92 to 96 °C

Q: For `COc1ccc(-c2nc(CC(=O)O)cs2)cc1`, which melting point is on record?
A: 109 to 111 °C

Q: With `Oc1ccc(OC2CCCCC2)cc1` as the compound, how does the melting point read?
A: 63 to 65 °C

Q: With `CCC1CCCCC1NC(=O)c1ccnc(F)c1` (configuration not stated) as the compound, how does the melting point read?
A: 69 to 71 °C

Q: Which melting point does the source give for `Cc1c(NC(=O)CSc2ccccc2C(=O)O)c(=O)n(-c2ccccc2)n1C` here?
A: 120 to 123 °C
